This is an account of results in US11058652B2, “Methods for treatment of Prader-Willi syndrome” (Yissum Research Development Company of the Hebrew …, priority 2016, dated 2021).

This experiment concerns Magel2-null mice. The experiment can be described thus: Effect of HU-671 on preventing bone loss in female Magel2 mice (μCT of distal femoral metaphysis). In kind it is in vivo. As to conditions: 0.5 mg/kg IP daily for 6 weeks. As to the method: The effect of HU-671 on preventing bone loss in female Magel2 mice and their littermates as controls was tested. Forty (40) 6-week old female mice were treated daily with HU-671 (0.5 mg/kg, IP) for a period of 6 weeks. Twenty-four (24) hours following the last administration of HU-671, a complete structural analysis of the trabecular and cortical bone in the distal femoral metaphysis was performed. The femora were fixed in phosphate buffered formalin for 48 hours and further kept at 70% ethanol. They were examined by a micro computed tomography (μCT) system. Scans were performed at 20-μm resolution in all three spatial dimensions. The mineralized tissues were differentially segmented by a global thresholding procedure.

Take `CCCCCCCC/C=C\CCCCCCCC(=O)NC(C)(CO)C(=O)O` (racemic) [HU-671, N-oleoyl α-methyl-DL-serine]: the “Tb.N (trabecular number)” value was “increasing”, the “Tb.Th (trabecular thickness)” value was “enhancing”, the “bone volume density (BV/TV)” value is on record as “stimulated increase” and the “connectivity density in the trabecular bone (Conn.D)” value was “significantly rescued”. In addition, the cortical parameters entry was “improved” and the “reduction in Cort.Th (cortical thickness)” value is given as “completely prevent”. In addition, the trabecular bone loss entry (vs vehicle-treated) is given as “completely prevented”.
